Active and inactive are the calls of the source.
How the values were obtained:
HeLa = assay: viability loss in HeLa cells – cell-based, 24 h, cherry-picked samples, cytotoxicity control, dose response (AID 504726); type: functional; conditions: Homo sapiens;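 also: potency for cytotoxicity as loss of luminescence signal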
[1] = acridine orange displacement from DNA – biochemical, fluorescence polarization, cherry-pick, artefact control for RAD54 inhibitor project, dose response (AID 651673); type: functional
BJ [2] = assay: BJ-TERT fibroblast viability loss – cell-based, RAS-independent, luminescence, dose response (AID 1933); type: functional; conditions: Homo sapiens
[3] = target: G-protein coupled receptor 55 (Homo sapiens, UniProt Q9Y2T6); assay: inhibition of LPI-stimulated GPR55 beta-arrestin translocation – imaging, U2OS, beta-arrestin-GFP, LPI agonist, primary screen (AID 2013); type: functional;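 also: antagonist potency measured as reduced agonist-driven arrestin aggregation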
Beta-galactosidase = Beta-galactosidase (Escherichia coli, UniProt Q8VNN2); type: functional
[4] = target: Kappa-type opioid receptor (Homo sapiens, UniProt P41145); type: functional
[5] = target: Glucose-6-phosphate 1-dehydrogenase (Homo sapiens, UniProt P11413); assay: inhibition of Homo sapiens G6PD, dose series – biochemical, fluorescence, selectivity assay for P. falciparum G6PD inhibitor project, dose response (AID 504792); type: functional
BJ [6] = assay: growth inhibition of engineered Ras-driven BJ cells – cell-based, alamar blue fluorescence, cherrypicked samples, dose response (AID 2631); type: functional; conditions: Homo sapiens;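 also: confirmatory dose-response assay in RAS-dependent BJ fibroblasts engineered with TERT, LT and ST, with cytotoxicity read by fluorescence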
INS1 = assay: INS-1E survival protection against cytokine death – cell-based, luminescence, retest, dose response (AID 449756); type: functional; conditions: Rattus norvegicus;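 also: cell death triggered by IL-1 beta plus TNF-alpha plus IFN-gamma mixture; protective hits raise ATP signal compared with cytokine alone wells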
[7] = reduction of Shn3 3'UTR-driven luciferase in osteoblasts – cell-based, Clone20 osteoblasts, firefly luciferase, cherry-picked, dose response (AID 624132); type: functional;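 also: firefly luciferase luminescence from reporter carrying the Shn3 3'UTR in osteoblasts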
[8] = target: T1, Tyrosine-protein phosphatase non-receptor type 22 (Homo sapiens, UniProt Q9Y2R2); assay: LYP1 Fluorescent Assay using OMFP substrate for In Vitro dose response studies. [Related pubchem assays (depositor defined):AID1779, AID1784, AID435024]
T1 sequence (Q9Y2R2 whole entry): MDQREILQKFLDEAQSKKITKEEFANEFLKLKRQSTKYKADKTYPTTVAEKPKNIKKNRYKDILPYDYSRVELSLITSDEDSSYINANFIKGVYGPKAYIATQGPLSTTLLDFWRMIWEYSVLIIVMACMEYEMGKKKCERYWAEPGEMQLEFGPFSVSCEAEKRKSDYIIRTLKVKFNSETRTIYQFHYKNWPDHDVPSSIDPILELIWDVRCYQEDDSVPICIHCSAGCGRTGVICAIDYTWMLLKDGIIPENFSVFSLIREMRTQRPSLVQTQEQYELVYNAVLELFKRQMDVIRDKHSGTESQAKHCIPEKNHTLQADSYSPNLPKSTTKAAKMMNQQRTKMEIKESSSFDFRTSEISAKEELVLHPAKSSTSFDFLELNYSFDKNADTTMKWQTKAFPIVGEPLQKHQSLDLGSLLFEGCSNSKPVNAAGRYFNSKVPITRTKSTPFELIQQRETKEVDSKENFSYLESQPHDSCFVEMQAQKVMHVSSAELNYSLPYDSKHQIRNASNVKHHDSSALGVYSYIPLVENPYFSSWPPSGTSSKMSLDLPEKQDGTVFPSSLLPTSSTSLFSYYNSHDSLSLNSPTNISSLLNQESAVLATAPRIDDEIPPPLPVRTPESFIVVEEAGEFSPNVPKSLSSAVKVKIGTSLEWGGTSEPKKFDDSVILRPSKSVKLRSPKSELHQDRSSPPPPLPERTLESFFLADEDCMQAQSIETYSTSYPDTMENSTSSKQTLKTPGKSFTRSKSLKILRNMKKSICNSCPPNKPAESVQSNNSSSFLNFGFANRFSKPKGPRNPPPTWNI

[9] = target: Voltage-gated N-type calcium channel alpha-1B subunit/Amyloid beta A4 precursor protein-binding family A member 1 (Homo sapiens, UniProt Q00975+Q02410); type: protein assay
[10] = target: T1, Tyrosine-protein phosphatase non-receptor type 22; assay: PTPN22 lymphoid phosphatase activity blockers – biochemical, fluorescence intensity, uHTS (AID 1779)
[11] = target: Induced myeloid leukemia cell differentiation protein Mcl-1 (Homo sapiens, UniProt Q07820); type: functional
[12] = target: T1, Tyrosine-protein phosphatase non-receptor type 22; type: functional
[13] = target: T1, Tyrosine-protein phosphatase non-receptor type 22; type: functional; remark: listed apart in the source
[14] = target: Probable nicotinate-nucleotide adenylyltransferase (Staphylococcus aureus (strain N315), UniProt P65502); type: functional, Staphylococcus aureus subsp. aureus N315; conditions: read-out: IC50_Mean;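 also: confirmatory dose-response retesting of NadD inhibitor hits first found in an ultra-high-throughput screen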
[15] = target: T2, Long-chain-fatty-acid--AMP ligase FadD28 (Mycobacterium tuberculosis, UniProt P9WQ59); assay: Fluorescence polarization aasay to screen for inhibitors that compete for the binding of FadD28 to a bisubstrate Measured in Biochemical System Using Plate Reader - 2147-01_Inhibitor_Dose_CherryPick_Activity.; type: functional, Mycobacterium tuberculosis H37Rv
T2 sequence (P9WQ59 whole entry): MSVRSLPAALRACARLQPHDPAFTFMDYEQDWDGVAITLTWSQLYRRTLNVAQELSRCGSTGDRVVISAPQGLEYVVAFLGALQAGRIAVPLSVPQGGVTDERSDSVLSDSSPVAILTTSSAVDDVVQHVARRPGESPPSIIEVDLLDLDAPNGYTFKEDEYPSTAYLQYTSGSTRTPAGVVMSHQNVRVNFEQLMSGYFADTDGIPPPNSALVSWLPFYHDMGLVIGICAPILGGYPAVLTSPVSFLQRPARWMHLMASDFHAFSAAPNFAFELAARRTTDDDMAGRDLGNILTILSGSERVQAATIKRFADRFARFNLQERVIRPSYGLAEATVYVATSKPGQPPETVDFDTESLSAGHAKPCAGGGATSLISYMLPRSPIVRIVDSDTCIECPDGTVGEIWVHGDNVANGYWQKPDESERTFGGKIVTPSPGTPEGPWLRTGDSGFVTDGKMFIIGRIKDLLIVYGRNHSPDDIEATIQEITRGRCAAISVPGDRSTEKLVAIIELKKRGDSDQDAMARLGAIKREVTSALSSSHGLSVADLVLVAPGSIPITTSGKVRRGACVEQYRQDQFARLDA

Sequence of Induced myeloid leukemia cell differentiation protein Mcl-1 (Q07820 whole entry): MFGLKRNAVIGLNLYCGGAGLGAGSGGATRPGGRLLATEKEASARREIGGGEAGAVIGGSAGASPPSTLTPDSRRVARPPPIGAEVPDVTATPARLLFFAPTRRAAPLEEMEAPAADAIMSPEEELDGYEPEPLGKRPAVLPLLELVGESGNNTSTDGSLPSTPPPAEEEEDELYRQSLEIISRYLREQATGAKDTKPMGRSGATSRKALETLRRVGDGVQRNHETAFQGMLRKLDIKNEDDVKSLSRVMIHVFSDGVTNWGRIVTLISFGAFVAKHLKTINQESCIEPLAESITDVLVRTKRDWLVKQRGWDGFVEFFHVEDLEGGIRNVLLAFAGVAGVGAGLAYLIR
Sequence of G-protein coupled receptor 55 (Q9Y2T6 whole entry): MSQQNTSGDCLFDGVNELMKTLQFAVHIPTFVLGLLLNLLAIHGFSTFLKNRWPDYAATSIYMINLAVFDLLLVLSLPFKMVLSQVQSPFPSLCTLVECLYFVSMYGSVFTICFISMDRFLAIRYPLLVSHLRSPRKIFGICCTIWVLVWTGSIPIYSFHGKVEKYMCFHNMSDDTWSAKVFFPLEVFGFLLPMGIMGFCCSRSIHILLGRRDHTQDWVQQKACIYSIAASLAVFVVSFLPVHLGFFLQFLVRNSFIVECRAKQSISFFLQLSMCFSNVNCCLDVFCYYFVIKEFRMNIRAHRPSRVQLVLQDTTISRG
Sequence of Glucose-6-phosphate 1-dehydrogenase (P11413 whole entry): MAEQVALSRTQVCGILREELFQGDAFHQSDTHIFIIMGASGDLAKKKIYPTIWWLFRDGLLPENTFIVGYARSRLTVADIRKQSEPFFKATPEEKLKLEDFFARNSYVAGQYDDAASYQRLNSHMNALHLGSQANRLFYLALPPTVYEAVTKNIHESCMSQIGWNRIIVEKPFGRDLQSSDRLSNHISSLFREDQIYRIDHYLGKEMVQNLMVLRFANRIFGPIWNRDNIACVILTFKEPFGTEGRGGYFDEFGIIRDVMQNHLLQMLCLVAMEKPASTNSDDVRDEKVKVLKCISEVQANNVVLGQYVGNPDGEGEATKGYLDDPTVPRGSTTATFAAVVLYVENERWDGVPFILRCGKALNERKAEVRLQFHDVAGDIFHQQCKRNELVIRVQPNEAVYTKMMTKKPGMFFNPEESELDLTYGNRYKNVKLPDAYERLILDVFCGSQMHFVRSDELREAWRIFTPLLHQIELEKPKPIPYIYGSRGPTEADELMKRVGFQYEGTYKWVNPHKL
Sequence of Voltage-gated N-type calcium channel alpha-1B subunit/Amyloid beta A4 precursor protein-binding family A member 1 (Q00975 whole entry): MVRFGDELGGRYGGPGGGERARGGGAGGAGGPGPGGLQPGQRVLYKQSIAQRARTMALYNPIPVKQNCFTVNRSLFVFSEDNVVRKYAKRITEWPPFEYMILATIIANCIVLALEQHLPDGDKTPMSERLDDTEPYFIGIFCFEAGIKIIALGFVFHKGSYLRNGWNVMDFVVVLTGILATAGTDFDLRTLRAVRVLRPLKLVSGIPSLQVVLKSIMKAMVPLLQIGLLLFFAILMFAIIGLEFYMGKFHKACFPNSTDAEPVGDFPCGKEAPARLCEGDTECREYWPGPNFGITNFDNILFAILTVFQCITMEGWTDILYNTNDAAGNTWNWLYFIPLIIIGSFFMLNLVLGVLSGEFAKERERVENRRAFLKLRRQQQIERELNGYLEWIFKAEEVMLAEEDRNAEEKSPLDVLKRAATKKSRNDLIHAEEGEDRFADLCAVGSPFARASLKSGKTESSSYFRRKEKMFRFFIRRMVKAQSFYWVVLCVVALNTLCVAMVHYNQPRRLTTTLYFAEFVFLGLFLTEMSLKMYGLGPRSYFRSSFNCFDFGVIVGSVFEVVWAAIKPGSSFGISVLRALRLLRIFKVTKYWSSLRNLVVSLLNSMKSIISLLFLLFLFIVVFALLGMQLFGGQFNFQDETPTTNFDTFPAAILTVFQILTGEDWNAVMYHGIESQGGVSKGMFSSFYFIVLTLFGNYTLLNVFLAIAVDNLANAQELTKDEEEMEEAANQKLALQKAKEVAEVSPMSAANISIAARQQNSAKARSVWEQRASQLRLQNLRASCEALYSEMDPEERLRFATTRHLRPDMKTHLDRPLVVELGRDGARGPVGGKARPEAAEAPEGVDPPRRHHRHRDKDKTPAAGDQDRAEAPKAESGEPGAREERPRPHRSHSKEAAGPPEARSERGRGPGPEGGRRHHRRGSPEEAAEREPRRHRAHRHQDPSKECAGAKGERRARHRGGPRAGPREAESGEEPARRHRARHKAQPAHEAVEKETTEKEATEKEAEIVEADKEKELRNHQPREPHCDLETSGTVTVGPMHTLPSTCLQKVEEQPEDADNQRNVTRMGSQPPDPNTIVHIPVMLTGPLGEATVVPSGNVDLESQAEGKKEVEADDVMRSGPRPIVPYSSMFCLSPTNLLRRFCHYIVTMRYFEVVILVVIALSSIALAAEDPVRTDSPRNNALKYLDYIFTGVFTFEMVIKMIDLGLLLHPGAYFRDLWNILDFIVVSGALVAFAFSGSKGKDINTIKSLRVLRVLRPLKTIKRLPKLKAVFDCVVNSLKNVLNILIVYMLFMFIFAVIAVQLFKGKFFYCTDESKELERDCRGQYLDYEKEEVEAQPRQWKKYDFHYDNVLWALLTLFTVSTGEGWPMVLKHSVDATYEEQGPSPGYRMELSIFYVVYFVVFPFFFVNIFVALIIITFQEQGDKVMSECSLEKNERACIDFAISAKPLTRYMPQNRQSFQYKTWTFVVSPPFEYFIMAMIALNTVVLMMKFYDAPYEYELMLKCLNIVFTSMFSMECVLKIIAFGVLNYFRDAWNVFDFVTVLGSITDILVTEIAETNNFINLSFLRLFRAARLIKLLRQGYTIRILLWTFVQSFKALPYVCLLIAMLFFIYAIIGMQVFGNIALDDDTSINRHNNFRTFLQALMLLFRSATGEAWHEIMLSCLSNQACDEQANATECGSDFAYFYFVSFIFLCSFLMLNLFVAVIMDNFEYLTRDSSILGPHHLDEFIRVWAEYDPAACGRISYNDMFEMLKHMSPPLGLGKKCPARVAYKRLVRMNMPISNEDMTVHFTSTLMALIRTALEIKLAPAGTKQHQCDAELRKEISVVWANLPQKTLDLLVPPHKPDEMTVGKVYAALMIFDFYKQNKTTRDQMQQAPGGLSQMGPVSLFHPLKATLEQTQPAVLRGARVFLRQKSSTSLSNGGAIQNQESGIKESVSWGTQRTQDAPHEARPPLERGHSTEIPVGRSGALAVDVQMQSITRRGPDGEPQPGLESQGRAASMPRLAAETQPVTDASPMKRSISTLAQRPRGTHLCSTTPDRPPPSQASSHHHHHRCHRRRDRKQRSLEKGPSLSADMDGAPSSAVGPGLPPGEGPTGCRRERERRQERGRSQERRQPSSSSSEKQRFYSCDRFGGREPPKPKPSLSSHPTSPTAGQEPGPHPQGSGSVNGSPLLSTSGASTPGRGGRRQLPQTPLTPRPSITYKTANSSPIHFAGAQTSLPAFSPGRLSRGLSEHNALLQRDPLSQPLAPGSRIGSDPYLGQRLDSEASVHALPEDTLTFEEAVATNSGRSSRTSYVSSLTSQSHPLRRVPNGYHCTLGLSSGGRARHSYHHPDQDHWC
Sequence of Voltage-gated N-type calcium channel alpha-1B subunit/Amyloid beta A4 precursor protein-binding family A member 1 (Q02410 whole entry): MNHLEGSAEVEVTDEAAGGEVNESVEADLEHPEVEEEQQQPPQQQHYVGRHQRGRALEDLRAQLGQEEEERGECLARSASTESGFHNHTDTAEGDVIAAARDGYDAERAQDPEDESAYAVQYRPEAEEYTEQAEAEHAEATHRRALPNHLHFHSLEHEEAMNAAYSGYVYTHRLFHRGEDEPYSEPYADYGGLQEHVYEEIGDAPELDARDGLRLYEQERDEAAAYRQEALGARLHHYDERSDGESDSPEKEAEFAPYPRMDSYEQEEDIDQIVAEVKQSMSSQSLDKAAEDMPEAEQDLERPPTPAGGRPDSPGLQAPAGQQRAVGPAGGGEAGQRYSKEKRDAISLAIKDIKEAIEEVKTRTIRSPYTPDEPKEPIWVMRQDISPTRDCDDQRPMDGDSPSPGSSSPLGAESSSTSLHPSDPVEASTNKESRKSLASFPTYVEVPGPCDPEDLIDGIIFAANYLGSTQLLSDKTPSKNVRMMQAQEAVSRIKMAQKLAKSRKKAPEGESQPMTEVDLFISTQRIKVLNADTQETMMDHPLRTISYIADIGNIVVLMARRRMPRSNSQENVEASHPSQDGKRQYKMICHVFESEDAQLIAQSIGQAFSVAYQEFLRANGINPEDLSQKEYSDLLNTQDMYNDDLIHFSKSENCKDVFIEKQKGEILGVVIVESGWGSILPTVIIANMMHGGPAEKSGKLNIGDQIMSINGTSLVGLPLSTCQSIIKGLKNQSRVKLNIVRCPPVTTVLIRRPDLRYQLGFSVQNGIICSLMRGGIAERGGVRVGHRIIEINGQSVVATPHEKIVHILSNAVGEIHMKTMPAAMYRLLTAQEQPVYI
Sequence of Kappa-type opioid receptor (P41145 whole entry): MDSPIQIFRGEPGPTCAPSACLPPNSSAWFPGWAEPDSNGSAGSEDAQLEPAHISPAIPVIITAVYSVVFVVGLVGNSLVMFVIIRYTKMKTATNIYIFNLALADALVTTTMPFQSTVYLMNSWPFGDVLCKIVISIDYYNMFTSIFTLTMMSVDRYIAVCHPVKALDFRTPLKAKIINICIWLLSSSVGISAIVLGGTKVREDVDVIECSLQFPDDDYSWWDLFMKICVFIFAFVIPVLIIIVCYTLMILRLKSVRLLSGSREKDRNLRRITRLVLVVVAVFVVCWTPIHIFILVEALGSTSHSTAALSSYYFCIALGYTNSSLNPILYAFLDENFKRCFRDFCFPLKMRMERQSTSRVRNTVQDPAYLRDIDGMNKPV
Sequence of Probable nicotinate-nucleotide adenylyltransferase (P65502 whole entry): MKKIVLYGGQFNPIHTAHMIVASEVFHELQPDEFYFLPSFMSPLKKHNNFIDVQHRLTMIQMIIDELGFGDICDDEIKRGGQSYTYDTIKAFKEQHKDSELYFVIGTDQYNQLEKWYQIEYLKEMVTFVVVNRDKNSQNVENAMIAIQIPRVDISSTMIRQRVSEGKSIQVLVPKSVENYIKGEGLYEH

## CCN(CC)CCN1C(=O)c2cccc3cc(N)cc(c23)C1=O
HeLa
  AC50: 109 µM (active)
[1]
  AC50: 56.9 µM (active)

## C=C1C(=O)O[C@@H]2C[C@@H](C)[C@@H]3C=CC(=O)[C@@]3(C)[C@@H](OC(=O)CC(=O)O[C@H]3[C@@H]4C(=C)C(=O)O[C@@H]4C[C@@H](C)[C@@H]4C=CC(=O)[C@]43C)[C@H]12
BJ [2]
  EC50: 0.354 µM (inconclusive)
[3]
  IC50: 1.85 µM (active)
Beta-galactosidase
  EC50: > 31.5 µM (inactive)
[4]
  IC50: 9.14 µM
[5]
  IC50: > 80 µM (inactive)
BJ [6]
  EC50: 0.0525 µM (active)
INS1
  AC50: 0.312 µM (active)
[7]
  AC50: 0.292 µM (active)

## O=C(O)c1cccc(-n2cccc2/C=C2/NC(=O)N(c3ccc(Cl)cc3)C2=O)c1
[8]
  IC50: 4.54 µM (active)
[9]
  IC50: 9.85 µM (active)
[10]
  IC50: 5.47 µM (active)
[11]
  IC50: 2.69 µM (active)
[12]
  IC50: 2.44 µM (active)
[13]
  IC50: 4.4 µM (active)
[14]
  IC50: 27.1 µM (active)
[15]
  AC50: 58 µM (active)
